Reference: patent US8420657B2 (Novartis AG, priority 2008, dated 2013)

Columns and labels:
GST-JAK2(808-1132) = biological target: T1, GST-JAK2(808-1132) (Homo sapiens, UniProt O60674); assay: JAK2 kinase assay (Caliper mobility shift, LabChip 3000); assay type: biochemical
T1 construct: GST-JAK2(808-1132); purchased Invitrogen (Carlsbad, USA) #4288
Procedure, shortened: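 Eight-point compound series (final 10–0.003 μM) tested on purchased GST-JAK2 kinase domain (808-1132). Peptide FITC-JAK3tide plus ATP reacted 60 min, 30 °C, then quenched with EDTA; turnover from charge-based separation of substrate and product.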

[1] = test system: JAK2-dependent nuclear translocation of STAT5-GFP in U-2 OS osteosarcoma cells; assay: STAT5 nuclear translocation assay (Cellomics), rhEpo stimulated U-2 OS STAT5-GFP cells; assay type: cell-based; conditions: STAT5 translocation pathway
Procedure, shortened: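 U-2 OS cells stably expressing STAT5a-GFP and EpoR pre-treated with compound (final 10 μM to 0.003 μM, 0.1% DMSO) for 30 min at 37° C., then stimulated 1 h with 5 U/ml rhEpo. Nuclear-cytoplasmic GFP differential quantified by automated imaging (≥1000 cells/well, Hoechst nuclear mask). IC50 from % translocation normalized to untreated and DMSO-stimulated controls.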

T1 sequence (O60674 808-1132): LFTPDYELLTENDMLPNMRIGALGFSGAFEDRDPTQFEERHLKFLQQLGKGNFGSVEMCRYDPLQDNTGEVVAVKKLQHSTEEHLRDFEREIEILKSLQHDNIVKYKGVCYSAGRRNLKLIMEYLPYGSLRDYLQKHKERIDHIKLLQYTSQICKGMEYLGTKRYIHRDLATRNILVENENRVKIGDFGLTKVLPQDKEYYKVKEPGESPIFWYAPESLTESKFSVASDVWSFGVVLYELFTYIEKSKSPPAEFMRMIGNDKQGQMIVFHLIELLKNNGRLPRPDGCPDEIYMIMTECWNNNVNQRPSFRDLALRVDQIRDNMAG

| Compound | IC50 (GST-JAK2(808-1132)) [nM] | IC50 ([1]; Homo sapiens, U2OS) [nM] | IC50 [1] [nM] |
| --- | --- | --- | --- |
| C[C@@H]1CN(C(=O)c2cc(Nc3ncc4ccn(-c5cc(F)c(CN6CCOCC6)c(F)c5)c4n3)ccn2)C[C@H](C)N1 [Example 371, {4-[7-(3,5-Difluoro-4-morpholin-4-ylmethyl-phenyl)-7H-pyrrolo[2,3-d]pyrimidin-2-ylamino]-pyridin-2-yl}-(cis-3,5-dimethyl-piperazin-1-yl)-methanone] | 13 | 135 |  |
| C[C@@H]1CN(c2ncc(Nc3ncc4ccn(-c5cc(F)c(CN6CCOCC6)c(F)c5)c4n3)cc2C(F)(F)F)C[C@H](C)N1 [Example 496, [7-(3,5-Difluoro-4-morpholin-4-ylmethyl-phenyl)-7H-pyrrolo[2,3-d]pyrimidin-2-yl]-[6-(cis-3,5-dimethyl-piperazin-1-yl)-5-trifluoromethyl-pyridin-3-yl]-amine] | ≤ 3 | 97.2 |  |
| C[C@@H]1CN(Cc2ccc(Nc3ncc4ccn(-c5ccc6c(c5)CCC(=O)N6)c4n3)cc2)C[C@H](C)N1 [Example 468, 6-{2-[4-(cis-3,5-Dimethyl-piperazin-1-ylmethyl)-phenylamino]-pyrrolo[2,3-d]pyrimidin-7-yl}-3,4-dihydro-1H-quinolin-2-one] | ≤ 3 | 14 |  |
| Cc1cc(Nc2ncc3ccn(-c4cc(F)c(CN5CCOCC5)c(F)c4)c3n2)ccc1[C@H]1CCCN1 [Example 346, [7-(3,5-Difluoro-4-morpholin-4-ylmethyl-phenyl)-7H-pyrrolo[2,3-d]pyrimidin-2-yl]-((R)-3-methyl-4-pyrrolidin-2-yl-phenyl)-amine] | ≤ 3 | 2.8 |  |
| O=C1CN(c2cc(Nc3ncc4ccn(-c5cc(F)c(CN6CCOCC6)c(F)c5)c4n3)ccn2)CCN1 [Example 500, 4-{4-[7-(3,5-Difluoro-4-morpholin-4-ylmethyl-phenyl)-7H-pyrrolo[2,3-d]pyrimidin-2-ylamino]-pyridin-2-yl}-piperazin-2-one] | ≤ 3 | 16 |  |
| Cc1ccc(Nc2ncc3ccn(-c4cc(F)c(CN5CCOCC5)c(F)c4)c3n2)cc1CN1C[C@H](C)NC[C@H]1C (racemic) [Example 378, [7-(3,5-Difluoro-4-morpholin-4-ylmethyl-phenyl)-7H-pyrrolo[2,3-d]pyrimidin-2-yl]-[3-((2R,5S)-2,5-dimethyl-piperazin-1-ylmethyl)-4-methyl-phenyl]-amine] | 13 | 45 |  |
| Fc1cc(-n2ccc3cnc(Nc4cnc(N5CCNCC5)c(Cl)c4)nc32)cc(F)c1CN1CCOCC1 [Example 502, (5-Chloro-6-piperazin-1-yl-pyridin-3-yl)-[7-(3,5-difluoro-4-morpholin-4-ylmethyl-phenyl)-7H-pyrrolo[2,3-d]pyrimidin-2-yl]-amine] | ≤ 3 | 17 |  |
| Cc1ccc(Nc2ncc3ccn(-c4cc(F)c(CN5CCOCC5)c(F)c4)c3n2)cc1CN1CCN(C)C(=O)C1 [Example 395, 4-{5-[7-(3,5-Difluoro-4-morpholin-4-ylmethyl-phenyl)-7H-pyrrolo[2,3-d]pyrimidin-2-ylamino]-2-methyl-benzyl}-1-methyl-piperazin-2-one] | ≤ 3 | 17 |  |
| [6-Azetidin-3-yloxy)-pyridin-3-yl]-[7-(3,5-difluoro-4-morpholin-4-ylmethyl-phenyl)-7H-pyrrolo[2,3-d]pyrimidin-2-yl]-amine [Example 514] | 25 |  | 1320 |
| Cc1ccc(Nc2ncc3ccn(-c4cc(F)c(CN5CCS(=O)(=O)CC5)c(F)c4)c3n2)cc1CN1CCN(C)C(=O)C1 [Example 422, 4-(5-{7-[4-(1,1-Dioxido-thiomorpholin-4-ylmethyl)-3,5-difluoro-phenyl]-7H-pyrrolo[2,3-d]pyrimidin-2-ylamino}-2-methyl-benzyl)-1-methyl-piperazin-2-one] | ≤ 3 | 5.7 |  |
| C[C@@H]1CN(c2ncc(Nc3ncc4ccn(-c5cc(F)c(CN6CCS(=O)(=O)CC6)c(F)c5)c4n3)cc2Cl)C[C@H](C)N1 [Example 430, [5-Chloro-6-(cis-3,5-dimethyl-piperazin-1-yl)-pyridin-3-yl]-{7-[4-(1,1-dioxido-thiomorpholin-4-ylmethyl)-3,5-difluoro-phenyl]-7H-pyrrolo[2,3-d]pyrimidin-2-yl}-amine] | ≤ 3 | 3.6 |  |
| CN1CCN(c2ccc(Nc3ncc4ccn(-c5ccc6c(c5)CC(=O)N6C)c4n3)cn2)CC1 [Example 448, 1-Methyl-5-{2-[6-(4-methyl-piperazin-1-yl)-pyridin-3-ylamino]-pyrrolo[2,3-d]pyrimidin-7-yl}-1,3-dihydro-indol-2-one] | 5 | 7.4 |  |
| Fc1cc(-n2ccc3cnc(Nc4ccc(CN5CCNC(C(F)(F)F)C5)cc4)nc32)cc(F)c1CN1CCOCC1 (racemic) [Example 476, [7-(3,5-Difluoro-4-morpholin-4-ylmethyl-phenyl)-7H-pyrrolo[2,3-d]pyrimidin-2-yl]-[4-(3-trifluoromethyl-piperazin-1-ylmethyl)-phenyl]-amine] | ≤ 3 | 34.5 |  |
| C[C@@H]1CN(Cc2ccc(Nc3ncc4ccn(-c5cc(F)c(CN6CCOCC6=O)c(F)c5)c4n3)cc2)C[C@H](C)N1 [Example 484, 4-(4-{2-[4-(cis-3,5-Dimethyl-piperazin-1-ylmethyl)-phenylamino]-pyrrolo[2,3-d]pyrimidin-7-yl}-2,6-difluoro-benzyl)-morpholin-3-one] | ≤ 3 | 67 |  |
| C[C@@H]1CN(c2ccc(Nc3ncc4ccn(-c5cc(F)c(CN6CCCC6=O)c(F)c5)c4n3)cn2)C[C@H](C)N1 [Example 458, 1-(4-{2-[6-(cis-3,5-Dimethyl-piperazin-1-yl)-pyridin-3-ylamino]-pyrrolo[2,3-d]pyrimidin-7-yl}-2,6-difluoro-benzyl)-pyrrolidin-2-one] | ≤ 3 | 1.4 |  |
| Cc1ccc(Nc2ncc3ccn(-c4cc(F)c(CN5CCOCC5)c(F)c4)c3n2)cc1CN1CCN(C)CC1 [Example 331, [7-(3,5-Difluoro-4-morpholin-4-ylmethyl-phenyl)-7H-pyrrolo[2,3-d]pyrimidin-2-yl]-[4-methyl-3-(4-methyl-piperazin-1-ylmethyl)-phenyl]-amine] | ≤ 3 | 2.8 |  |
| COCCOc1ccc(Nc2ncc3ccn(-c4cc(F)c(CN5CCOCC5)c(F)c4)c3n2)cn1 [Example 516, [7-(3,5-Difluoro-4-morpholin-4-ylmethyl-phenyl)-7H-pyrrolo[2,3-d]pyrimidin-2-yl]-[6-(2-methoxy-ethoxy)-pyridin-3-yl]-amine] | 6.4 | 119 |  |
| C[C@@H]1CN(Cc2c(F)cc(-n3ccc4cnc(Nc5ccc(N6CCNCC6)nc5)nc43)cc2F)C[C@H](C)O1 [Example 454, {7-[4-(cis-2,6-dimethyl-morpholin-4-ylmethyl)-3,5-difluoro-phenyl]-7H-pyrrolo[2,3-d]pyrimidin-2-yl}-(6-piperazin-1-yl-pyridin-3-yl)-amine] | 4.5 | 53.5 |  |
| CC1(C)CN(Cc2ccc(Nc3ncc4ccn(-c5cc(F)c(CN6CCOCC6)c(F)c5)c4n3)cc2)CCN1 [Example 473, [7-(3,5-Difluoro-4-morpholin-4-ylmethyl-phenyl)-7H-pyrrolo[2,3-d]pyrimidin-2-yl]-[4-(3,3-dimethyl-piperazin-1-ylmethyl)-phenyl]-amine] | ≤ 3 | 12.3 |  |
| Cc1ccc(Nc2ncc3ccn(-c4ccc(S(=O)(=O)NC(C)(C)C)cc4)c3n2)cc1CN1C[C@@H](C)N[C@@H](C)C1 [Example 387, N-tert-Butyl-4-{2-[3-(cis-3,5-dimethyl-piperazin-1-ylmethyl)-4-methyl-phenylamino]-pyrrolo[2,3-d]pyrimidin-7-yl}-benzenesulfonamide] | 9.6 | 45.5 |  |
| Cc1ccc(Nc2ncc3ccn(-c4ccc(S(=O)(=O)NC(C)(C)C)cc4)c3n2)cc1CN1CCN(C)CC1 [Example 353, N-tert-Butyl-4-{2-[4-methyl-3-(4-methyl-piperazin-1-ylmethyl)-phenylamino]-pyrrolo[2,3-d]pyrimidin-7-yl}-benzenesulfonamide] | 4.9 | 17 |  |
| CN1CCN(Cc2cc(Nc3ncc4ccn(-c5cc(F)c(CN6CCOCC6)c(F)c5)c4n3)ccc2Cl)CC1 [Example 494, [4-Chloro-3-(4-methyl-piperazin-1-yl methyl)-phenyl]-[7-(3,5-difluoro-4-morpholin-4-ylmethyl-phenyl)-7H-pyrrolo[2,3-d]pyrimidin-2-yl]-amine] | ≤ 3 | 394 |  |
| Fc1cc(-n2ccc3cnc(Nc4ccnc(OCCN5CCOCC5)c4)nc32)cc(F)c1CN1CCOCC1 [Example 352, [7-(3,5-Difluoro-4-morpholin-4-yl methyl-phenyl)-7H-pyrrolo[2,3-d]pyrimidin-2-yl]-[2-(2-morpholin-4-yl-ethoxy)-pyridin-4-yl]-amine] | ≤ 3 | 22.1 |  |
| Cc1ccc(Nc2ncc3ccn(-c4cc(F)c(CN5CCOCC5)c(F)c4)c3n2)cc1CN1CCC(F)(F)C1 [Example 393, [7-(3,5-Difluoro-4-morpholin-4-ylmethyl-phenyl)-7H-pyrrolo[2,3-d]pyrimidin-2-yl]-[3-(3,3-difluoro-pyrrolidin-1-ylmethyl)-4-methyl-phenyl]-amine] | 13 | 52 |  |
| CN(C)CCN1CCN(c2ccc(Nc3ncc4ccn(-c5cc(F)c(CN6CCOCC6)c(F)c5)c4n3)cn2)CC1 [Example 465, [7-(3,5-Difluoro-4-morpholin-4-ylmethyl-phenyl)-7H-pyrrolo[2,3-d]pyrimidin-2-yl]-{6-[4-(2-dimethylamino-ethyl)-piperazin-1-yl]-pyridin-3-yl}-amine] | ≤ 3 | 3.2 |  |
